Consider four compounds from PMC9103715, “New Panx-1 Blockers: Synthesis, Biological Evaluation and Molecular Dynamic Studies” (International Journal of Molecular Sciences, 2022).

Usually IC50 stands for the concentration that gives 50% inhibition. Usually inhibition stands for the drop in the measured response relative to a control, in per cent.

The test system of test [1] is Panx-1. The conditions noted are these: cited from earlier work; for IC50: Panx-1 blockers, reference compounds.
The target in test [2] is T1, Panx-1 channels (Mus musculus, UniProt Q9JIP4).
T1 construct: expressed in transfected cells; host or cells: Xenopus laevis oocytes injected with in vitro-transcribed mRNA
The test is described as follows: Voltage clamp on Xenopus laevis oocytes expressing Panx-1 channels. The class given is cell-based. The note with it: Figure 4 dose-response plot; concentration not printed in the legend.

Test [3] has as its target T1, Panx-1 channels. Described as above. The class given is cell-based. The method, then: All new products were screened as Panx-1 blockers at the dose of 50 µM using the Voltage Clamp technique on Xenopus Laevis oocytes expressing Panx-1 channels. The membrane potential of the cells was held at -60 mV and voltage steps to +60 mV were applied to induce membrane currents. To verify that Panx-1 channels carried the currents, in each experiment 100 µM carbenoxolone (CBX) was applied. At this concentration, CBX is known to yield 100% inhibition of Panx-1 activity. If present, leak currents resistant to CBX were subtracted from the total current to assess % inhibition mediated by the tested compounds. Table 1 and Table 2 report the electrophysiological results of naphthalene-2-sulphonic acid derivatives bearing at position 5 an amino- (3a–e, 4 and 5) or amide group (7a–g, 8 and 9) and of compound 13.
Oocytes of Xenopus laevis are prepared as previously described in [39] where the oocytes are isolated from surgically removed ovary segments incubated in an Oocyte Ringe solution Ca2-free (OR2: in mM: 82.5 NaCl, 2.5 KCl, 1.0 MgCl2, […], 1.0 Na2HPO4 e 5.0 HEPES, pH 7.5) with 2 mg/mL of collagenase and antibiotics (10,000 U/mL penicillin and 10 mg/mL of streptomycin) stirred at room temperature for 3 h. After being washed with OR2, oocytes free of follicular cells and that have a uniform pigmentation are chosen and stored in OR2 for 18 °C.
Mouse pannexin1, in pCS2, was linearised with NotI. In vitro transcription was performed with the polymerase SP6, using the Message Machine kit (Ambion). mRNA was quantified by absorbance (260 nm), and the proportion of full-length transcripts was checked by agarose gel electrophoresis. In vitro-transcribed mRNA (~20 nL) was injected into Xenopus laevis oocytes.
Whole-cell membrane currents of oocytes were measured using a two-electrode voltage clamp (Gene Clamp 500B, Axon Instruments/Molecular Devices Sunnyvale, Union City, CA, USA). Glass pipettes were pulled using a P-97 Flaming/Brown type puller (Sutter, Novato, CA, USA). The recording chamber was perfused continuously with frog Ringer (OR) solution (in mM: 82.5 NaCl, 2.5 KCl, 1 CaCl2, 1 MgCl2, 1 Na2HPO4, and 5 HEPES, pH 7.5).
Membrane conductance was determined using voltage pulses, and the pulse-induced current amplitudes were divided by the amplitudes of the voltage steps. For calculation of % inhibition, leak currents were subtracted. Typically, leak currents after the interventions were smaller than at the beginning of the experiment and this smaller value was used for the subtraction to avoid overestimation of the inhibitory effect. For an independent measure of the leak current, oocytes at the end of the experiment were exposed to 100 µM carbenoxolone, which is known to close Panx1 channels 100%. Oocytes expressing Panx1 were held at −60 mV, and pulses to +60 mV were applied to transiently open the channels by means of the voltage gate. Pulses 5 s in duration were applied at 0.1 Hz for current and conductance measurements.

T1 sequence (Q9JIP4 whole entry): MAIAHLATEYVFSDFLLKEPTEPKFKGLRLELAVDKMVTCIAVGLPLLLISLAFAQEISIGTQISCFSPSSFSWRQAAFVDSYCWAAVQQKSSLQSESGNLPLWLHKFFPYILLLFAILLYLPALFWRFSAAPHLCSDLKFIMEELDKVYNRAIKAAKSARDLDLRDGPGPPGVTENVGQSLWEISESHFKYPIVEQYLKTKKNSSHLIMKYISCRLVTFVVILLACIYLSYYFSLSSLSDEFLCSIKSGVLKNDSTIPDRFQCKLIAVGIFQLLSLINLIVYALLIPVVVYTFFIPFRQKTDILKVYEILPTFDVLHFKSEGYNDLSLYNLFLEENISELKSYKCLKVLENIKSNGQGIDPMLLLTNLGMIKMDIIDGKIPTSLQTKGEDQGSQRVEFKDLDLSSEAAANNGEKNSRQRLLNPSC

As to `CCN(Cc1cccc(S(=O)(=O)O)c1)c1ccc(C(=C2C=CC(=[N+](CC)Cc3cccc(S(=O)(=O)O)c3)C=C2)c2ccccc2S(=O)(=O)[O-])cc1` [Brilliant Blue FCF], the IC50 in test [1] is 0.27 µM.
Turning to `CC1(C)[C@@H](OC(=O)CCC(=O)O)CC[C@]2(C)[C@H]3C(=O)C=C4[C@@H]5C[C@@](C)(C(=O)O)CC[C@]5(C)CC[C@@]4(C)[C@]3(C)CC[C@@H]12` [Carbenoxolone, carbenoxolone], in test [1] (100 µM carbenoxolone), the “inhibition of Panx-1 activity” value is 100%. The IC50 in test [1] was 10 µM. Besides, in test [2], the “% inhibition of Panx1-mediated membrane currents” value was 100%.
On to `O=C(O)c1cc([N+](=O)[O-])ccc1NCCCc1ccccc1` [NPPB, 5-nitro-2-(3-phenylpropylamino)benzoic acid], for which, in test [1], the IC50 was 50 µM.
In the case of `CCCN(CCC)S(=O)(=O)c1ccc(C(=O)O)cc1` [Probenecid, reference compound], the 50% inhibitory concentration (IC50) in test [1] was 150 µM. Further, in test [3] (50 µM, voltage clamp, Xenopus laevis oocytes expressing Panx-1 channels, read-out: I (%) inhibition of Panx-1 currents), the inhibition at 50 µM is 29%. Besides, the “classification as active or inactive Panx-1 blocker” value in test [3] (grouping chosen for the virtual screening) is “inactive”.
